Experimental data reported in publication PMC4104029, “Mechanism of Action of Compound-13: An α1-Selective Small Molecule Activator of AMPK” (Chemistry & Biology, 2014).

Target: T1, GST-AMPKγ2 subunit fusion (Homo sapiens, UniProt Q9UGJ0)
T1 construct: A C-terminal fragment of AMPKγ2 bearing CBS domains 1-4 (247-569) was expressed in; made in house; host or cells: E. coli
Assay: Competitive elution of AMPKγ2 from ATP-Sepharose
Assay type: binding
Settings: C2 and AMP to the same extent
Method: Supplemental Figure Legends:
Figure S1, related to Figures 1-3. Subunit composition of AMPK preparations used in this study. (A) Heterotrimeric AMPK complexes (10 ng) produced in both Sf9 (Sigma and Signalchem) and E.coli (in our laboratory) were analysed by Western blotting using isoform specific antibodies. Note that both the α2/α1-HOOK and α2/α1-LOOP chimeras are no longer recognised by the anti-α2 antibody as the epitope has been replaced (see Fig S4). (B) Heterotrimeric AMPK α2/α1 chimeric complexes expressed in E.coli (2 μg) were separated by SDS-PAGE and stained with Coomassie G-250. Arrows indicate the position of the […]
Figure S2, related to Figure 1. C2 has negligible effects on a panel of 138 protein kinases.
Kinase inhibition screen was performed by the International Centre for Kinase profiling (Dundee). Assays were performed in duplicate using 10 µM C2 and are representative of two independent screens. Results are shown in rank order as mean % activity compared with controls in the absence of compound ± SD. […]
Figure S3, related to Figure 2. […] Results are expressed as mean Pi incorporated in nmol.min-1.mg-1 ± SD. […] Results are expressed as fold increase in activity relative to controls in the absence of compound ± SD.
(E) C2 and AMP displace a GST-AMPKγ2 subunit fusion from ATP-γ-Sepharose. […] The presence of eluted AMPKγ2 was analysed by SDS-PAGE and staining with colloidal Coomassie. […]

T1 sequence (Q9UGJ0 247-569): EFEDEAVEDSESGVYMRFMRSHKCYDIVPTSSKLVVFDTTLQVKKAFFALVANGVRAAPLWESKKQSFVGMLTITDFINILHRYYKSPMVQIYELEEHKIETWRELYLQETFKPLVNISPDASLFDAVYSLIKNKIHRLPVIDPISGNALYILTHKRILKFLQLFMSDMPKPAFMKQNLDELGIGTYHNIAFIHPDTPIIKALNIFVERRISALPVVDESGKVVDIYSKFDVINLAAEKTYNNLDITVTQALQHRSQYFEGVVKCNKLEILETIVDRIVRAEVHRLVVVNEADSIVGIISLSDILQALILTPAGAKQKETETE

Structure (SMILES)	displacement from ATP-γ-Sepharose
Nc1ncnc2c1ncn2[C@@H]1O[C@H](COP(=O)(O)O)[C@@H](O)[C@H]1O [AMP, reference compound]	displaced
O=P(O)(O)c1ccc(-c2cc(O)on2)o1 [Compound C2, 5-(5-hydroxyl-isoxazol-3-yl)-furan-2-phosphonic acid]	displaced
